ChEMBL document CHEMBL4028808, “Design and synthesis of selective CDK8/19 dual inhibitors: Discovery of 4,5-dihydrothieno[3',4':3,4]benzo[1,2-d]isothiazole derivatives” (Bioorg Med Chem, 2017)
The source made the active and inactive calls. No cut-off for these calls is given here.

Tests used:
RPMI-8226 = experiment: Antitumor activity against human RPMI8226 cells xenografted in C.B17/Icr scid/scid Jcl mouse assessed as tumor growth suppression at 1.25 mg/kg, po bid administered for 14 days measured post last dose relative to control; type: functional
[1] = Intrinsic clearance in human liver microsomes at 1 umol/l after 15 to 30 mins in presence of NADPH by LC-MS/MS analysis; type: ADME, microsome; conditions: read-out: CLH
[2] = target: Cyclin-dependent kinase 8 (Homo sapiens, UniProt P49336); experiment: Binding affinity to partial length wild-type human CDK8 (M1 to T360residues) expressed in bacterial expression system by kinome scan assay
[3] = target: Mitogen-activated protein kinase kinase kinase 19 (Homo sapiens, UniProt Q56UN5); experiment: Binding affinity to partial length wild-type human YSK4 (T1019 to H1328 residues) expressed in bacterial expression system by kinome scan assay
[4] = target: T1, Homeodomain-interacting protein kinase 1 (Homo sapiens, UniProt Q86Z02); experiment: Binding affinity to partial length human HIPK1 (M146 to I555 residues) expressed in mammalian expression system by kinome scan assay
Ephrin type-A receptor 3 = Ephrin type-A receptor 3 (Homo sapiens, UniProt P29320); experiment: Binding affinity to partial length wild-type human EPHA3 (D604 to K889 residues) expressed in bacterial expression system by kinome scan assay
[5] = Volume of distribution at steady state in ICR mouse plasma at 0.1 mg/kg, iv administered as cassette dose by LC-MS/MS analysis; type: ADME, organism-based; conditions: read-out: Vdss
[6] = Mean residence time in ICR mouse plasma at 0.1 mg/kg, iv administered as cassette dose by LC-MS/MS analysis; type: ADME, organism-based
Mus musculus [7] = experiment: AUC (0 to 24 hrs) in ICR mouse plasma at 0.1 mg/kg, iv administered as cassette dose by LC-MS/MS analysis; type: ADME, organism-based; set-up: dose 0.1 mg/kg, time < 24 hr, route intravenous; conditions: in vivo
[8] = AUC (0 to 24 hrs) in ICR mouse plasma at 1 mg/kg, po administered as cassette dose by LC-MS/MS analysis; type: ADME, organism-based; set-up: dose 1 mg/kg, time < 24 hr, route oral
[9] = Cmax in ICR mouse plasma at 1 mg/kg, po administered as cassette dose by LC-MS/MS analysis; type: ADME, organism-based; set-up: dose 1 mg/kg, route oral
[10] = Oral bioavailability in ICR mouse plasma at 1 mg/kg administered as cassette dose by LC-MS/MS analysis; type: ADME, organism-based
[11] = Half life in ICR mouse plasma at 0.1 mg/kg, iv or 1 mg/kg, po administered as cassette dose by LC-MS/MS analysis; type: ADME, organism-based
Mus musculus [12] = experiment: Toxicity in C.B17/Icr scid/scid Jcl mouse assessed as body weight loss at 1.25 mg/kg, po bid administered for 14 days measured post last dose; type: organism-based; conditions: in vivo, 336 h
Mus musculus [13] = experiment: In vivo inhibition of CDK8-mediated STAT1 phosphorylation in human RPMI8226 cells xenografted in C.B17/Icr scid/scid Jcl mouse at 1.25 mg/kg, po bid administered for 14 days measured 2 to 8 hrs post last dose; type: functional, organism-based
[14] = target: Rho-associated protein kinase 1 (Homo sapiens) (UniProt Q13464); experiment: Inhibition of ROCK1 (unknown origin) at 1 uM using long S6 peptide as substrate pretreated for 5 mins followed by substrate addition measured after 10 mins in presence of [gamma33P]ATP by scintillation counting method relative to control
[15] = target: Protein kinase C theta type (Homo sapiens) (UniProt Q04759); experiment: Inhibition of PKCtheta (unknown origin) at 1 uM using MBP as substrate preincubated for 5 mins followed by substrate addition measured after 60 mins in presence of [gamma33P]ATP by scintillation counter method relative to control
Sequence of Protein kinase C theta type (Homo sapiens) (Q04759 whole entry, looked up): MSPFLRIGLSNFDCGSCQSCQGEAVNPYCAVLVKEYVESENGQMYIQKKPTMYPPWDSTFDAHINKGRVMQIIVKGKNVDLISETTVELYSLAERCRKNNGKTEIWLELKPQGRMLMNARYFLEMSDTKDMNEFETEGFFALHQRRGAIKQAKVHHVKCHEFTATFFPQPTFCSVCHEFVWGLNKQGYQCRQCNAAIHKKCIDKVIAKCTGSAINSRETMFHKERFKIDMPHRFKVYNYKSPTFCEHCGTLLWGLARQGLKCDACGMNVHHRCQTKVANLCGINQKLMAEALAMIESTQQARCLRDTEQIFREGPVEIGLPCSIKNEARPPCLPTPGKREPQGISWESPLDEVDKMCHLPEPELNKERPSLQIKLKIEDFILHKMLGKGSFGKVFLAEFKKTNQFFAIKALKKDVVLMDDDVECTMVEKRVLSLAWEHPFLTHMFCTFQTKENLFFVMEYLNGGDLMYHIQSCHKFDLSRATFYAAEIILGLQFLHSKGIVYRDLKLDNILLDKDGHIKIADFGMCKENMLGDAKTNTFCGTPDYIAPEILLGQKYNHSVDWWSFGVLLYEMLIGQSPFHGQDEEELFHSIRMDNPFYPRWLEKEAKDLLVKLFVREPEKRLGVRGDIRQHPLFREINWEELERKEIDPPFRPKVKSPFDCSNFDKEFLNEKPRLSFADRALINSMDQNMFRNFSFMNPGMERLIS

[16] = target: CDC7/DBF4 (Cell division cycle 7-related protein kinase/Activator of S phase kinase) (Homo sapiens) (UniProt Q9UBU7+O00311); experiment: Inhibition of CDC7/Dbf4 (unknown origin) at 1 uM using His-tagged MCM2 as substrate preincubated for 5 mins followed by substrate addition measured after 60 mins in presence of [gamma33P]ATP by scintillation counter method relative to control; type: protein-complex assay
Sequence of CDC7/DBF4 (Cell division cycle 7-related protein kinase/Activator of S phase kinase) (Homo sapiens) (O00311 whole entry, looked up): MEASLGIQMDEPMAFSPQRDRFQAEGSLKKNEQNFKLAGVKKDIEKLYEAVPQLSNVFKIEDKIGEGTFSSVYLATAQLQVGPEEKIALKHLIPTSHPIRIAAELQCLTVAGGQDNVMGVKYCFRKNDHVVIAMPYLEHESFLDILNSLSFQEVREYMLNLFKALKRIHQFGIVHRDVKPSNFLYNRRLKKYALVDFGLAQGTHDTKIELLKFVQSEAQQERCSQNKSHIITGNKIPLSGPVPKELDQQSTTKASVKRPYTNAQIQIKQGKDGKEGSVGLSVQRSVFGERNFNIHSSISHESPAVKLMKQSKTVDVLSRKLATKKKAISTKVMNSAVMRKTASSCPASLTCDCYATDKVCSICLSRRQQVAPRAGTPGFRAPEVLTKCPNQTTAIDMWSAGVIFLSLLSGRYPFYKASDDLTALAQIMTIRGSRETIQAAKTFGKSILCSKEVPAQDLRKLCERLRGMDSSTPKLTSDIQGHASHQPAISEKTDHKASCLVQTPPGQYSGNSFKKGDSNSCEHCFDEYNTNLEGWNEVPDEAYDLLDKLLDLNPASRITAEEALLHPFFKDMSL
Sequence of CDC7/DBF4 (Cell division cycle 7-related protein kinase/Activator of S phase kinase) (Homo sapiens) (Q9UBU7 whole entry, looked up): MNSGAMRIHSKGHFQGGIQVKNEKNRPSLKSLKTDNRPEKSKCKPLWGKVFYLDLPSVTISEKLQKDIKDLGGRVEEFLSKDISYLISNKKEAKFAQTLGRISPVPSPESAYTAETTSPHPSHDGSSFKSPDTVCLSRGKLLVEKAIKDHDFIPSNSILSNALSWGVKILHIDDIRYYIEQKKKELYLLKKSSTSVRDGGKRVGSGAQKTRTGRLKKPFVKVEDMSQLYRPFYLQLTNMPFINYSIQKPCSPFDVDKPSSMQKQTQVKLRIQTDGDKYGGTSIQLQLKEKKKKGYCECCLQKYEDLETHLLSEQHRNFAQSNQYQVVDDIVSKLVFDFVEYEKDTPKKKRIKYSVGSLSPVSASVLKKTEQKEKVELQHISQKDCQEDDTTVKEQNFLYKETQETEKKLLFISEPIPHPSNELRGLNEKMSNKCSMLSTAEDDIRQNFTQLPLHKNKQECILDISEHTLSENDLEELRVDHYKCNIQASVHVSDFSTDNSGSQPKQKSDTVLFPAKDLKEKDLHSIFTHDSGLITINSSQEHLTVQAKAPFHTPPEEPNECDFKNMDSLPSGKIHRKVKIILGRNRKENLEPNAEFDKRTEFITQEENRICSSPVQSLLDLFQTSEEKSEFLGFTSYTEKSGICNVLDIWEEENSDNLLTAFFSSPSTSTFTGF

[17] = target: Aurora kinase B (Homo sapiens) (UniProt Q96GD4); experiment: Inhibition of Aurora B (unknown origin) at <1 uM using aurora peptide as substrate preincubated for 5 mins followed by substrate addition measured after 60 mins in presence of [gamma33P]ATP by scintillation counter method
[18] = target: Dual specificity mitogen-activated protein kinase kinase 1 (Homo sapiens) (UniProt Q02750); experiment: Inhibition of MEK1 (unknown origin) at <1 uM using GST-ERK1 as substrate preincubated for 5 mins followed by substrate addition measured after 20 mins in presence of [gamma33P]ATP by scintillation counter method
Sequence of Dual specificity mitogen-activated protein kinase kinase 1 (Homo sapiens) (Q02750 whole entry): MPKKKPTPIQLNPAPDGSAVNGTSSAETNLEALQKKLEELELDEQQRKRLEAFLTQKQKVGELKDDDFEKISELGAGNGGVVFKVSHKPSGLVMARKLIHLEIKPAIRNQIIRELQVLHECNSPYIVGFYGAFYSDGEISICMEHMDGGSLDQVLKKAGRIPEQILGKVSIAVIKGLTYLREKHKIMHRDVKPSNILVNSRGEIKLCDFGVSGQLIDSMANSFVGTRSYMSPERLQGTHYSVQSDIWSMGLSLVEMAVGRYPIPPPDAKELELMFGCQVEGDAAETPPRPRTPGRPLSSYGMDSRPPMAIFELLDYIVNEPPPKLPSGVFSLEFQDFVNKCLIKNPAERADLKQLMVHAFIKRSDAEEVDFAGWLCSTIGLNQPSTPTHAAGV

[19] = target: Serine/threonine-protein kinase Chk1 (Homo sapiens) (UniProt O14757); experiment: Inhibition of CHK1 (unknown origin) at <1 uM using CHKtide as substrate preincubated for 5 mins followed by substrate addition measured after 10 mins in presence of [gamma33P]ATP by scintillation counter method
Sequence of Serine/threonine-protein kinase Chk1 (Homo sapiens) (O14757 whole entry): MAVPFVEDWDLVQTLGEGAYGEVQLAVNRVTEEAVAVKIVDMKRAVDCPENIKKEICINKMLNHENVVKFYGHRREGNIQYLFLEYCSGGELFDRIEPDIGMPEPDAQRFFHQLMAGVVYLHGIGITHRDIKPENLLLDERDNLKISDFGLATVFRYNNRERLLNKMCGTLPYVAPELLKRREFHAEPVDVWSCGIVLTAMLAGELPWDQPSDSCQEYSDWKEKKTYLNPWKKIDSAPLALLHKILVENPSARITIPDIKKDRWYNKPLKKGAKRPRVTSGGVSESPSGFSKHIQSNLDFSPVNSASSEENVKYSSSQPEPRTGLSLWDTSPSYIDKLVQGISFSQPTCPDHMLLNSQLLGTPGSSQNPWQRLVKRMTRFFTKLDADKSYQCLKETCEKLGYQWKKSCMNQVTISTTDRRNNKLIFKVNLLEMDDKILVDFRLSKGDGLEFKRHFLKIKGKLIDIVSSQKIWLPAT

[20] = target: Hepatocyte growth factor receptor (Homo sapiens) (UniProt P08581); experiment: Inhibition of cMET (unknown origin) at <1 uM
[21] = target: Tyrosine-protein kinase JAK1 (Homo sapiens) (UniProt P23458); experiment: Inhibition of JAK1 (unknown origin) at <1 uM using biotinylated poly[Glu:Tyr] (4:1) as substrate pretreated for 5 mins followed by substrate addition measured after 10 mins by Alphascreen assay
Sequence of Tyrosine-protein kinase JAK1 (Homo sapiens) (P23458 whole entry): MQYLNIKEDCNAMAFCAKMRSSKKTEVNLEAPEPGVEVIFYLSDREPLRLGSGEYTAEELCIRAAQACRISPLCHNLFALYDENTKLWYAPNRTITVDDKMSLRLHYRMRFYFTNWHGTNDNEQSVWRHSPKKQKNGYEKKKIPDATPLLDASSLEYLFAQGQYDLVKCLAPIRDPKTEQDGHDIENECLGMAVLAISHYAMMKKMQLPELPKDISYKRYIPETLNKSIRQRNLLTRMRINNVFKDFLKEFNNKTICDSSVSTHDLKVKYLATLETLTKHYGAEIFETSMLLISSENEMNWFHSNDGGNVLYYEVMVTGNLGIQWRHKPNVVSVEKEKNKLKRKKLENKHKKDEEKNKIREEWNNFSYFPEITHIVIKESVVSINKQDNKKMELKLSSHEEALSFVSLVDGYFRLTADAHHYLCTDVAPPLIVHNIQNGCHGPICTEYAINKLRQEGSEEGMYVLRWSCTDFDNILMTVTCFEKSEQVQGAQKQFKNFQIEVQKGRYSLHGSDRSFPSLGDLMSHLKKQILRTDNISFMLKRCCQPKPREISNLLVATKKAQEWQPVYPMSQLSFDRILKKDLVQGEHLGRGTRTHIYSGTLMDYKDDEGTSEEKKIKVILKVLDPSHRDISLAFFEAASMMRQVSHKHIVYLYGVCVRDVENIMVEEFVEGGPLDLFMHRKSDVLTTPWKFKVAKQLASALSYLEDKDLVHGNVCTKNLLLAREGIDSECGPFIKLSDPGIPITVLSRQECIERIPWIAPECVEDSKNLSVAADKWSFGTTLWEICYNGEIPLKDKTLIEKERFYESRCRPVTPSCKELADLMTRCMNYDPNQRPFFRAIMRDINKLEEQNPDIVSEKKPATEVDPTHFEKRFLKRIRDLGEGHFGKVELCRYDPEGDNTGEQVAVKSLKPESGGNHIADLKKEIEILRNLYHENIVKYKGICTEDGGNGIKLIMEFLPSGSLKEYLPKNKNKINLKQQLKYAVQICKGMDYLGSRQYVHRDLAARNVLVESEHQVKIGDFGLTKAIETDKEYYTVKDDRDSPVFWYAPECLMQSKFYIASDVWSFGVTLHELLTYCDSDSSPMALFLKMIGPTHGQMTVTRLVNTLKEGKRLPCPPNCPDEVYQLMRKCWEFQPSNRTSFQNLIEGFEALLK

[22] = target: Focal adhesion kinase 1 (Homo sapiens) (UniProt Q05397); experiment: Inhibition of FAK (unknown origin) at <1 uM using biotinylated poly[Glu:Tyr] (4:1) as substrate pretreated for 5 mins followed by substrate addition measured after 20 mins by Alphascreen assay
Sequence of Focal adhesion kinase 1 (Homo sapiens) (Q05397 2-1052 limits assumed): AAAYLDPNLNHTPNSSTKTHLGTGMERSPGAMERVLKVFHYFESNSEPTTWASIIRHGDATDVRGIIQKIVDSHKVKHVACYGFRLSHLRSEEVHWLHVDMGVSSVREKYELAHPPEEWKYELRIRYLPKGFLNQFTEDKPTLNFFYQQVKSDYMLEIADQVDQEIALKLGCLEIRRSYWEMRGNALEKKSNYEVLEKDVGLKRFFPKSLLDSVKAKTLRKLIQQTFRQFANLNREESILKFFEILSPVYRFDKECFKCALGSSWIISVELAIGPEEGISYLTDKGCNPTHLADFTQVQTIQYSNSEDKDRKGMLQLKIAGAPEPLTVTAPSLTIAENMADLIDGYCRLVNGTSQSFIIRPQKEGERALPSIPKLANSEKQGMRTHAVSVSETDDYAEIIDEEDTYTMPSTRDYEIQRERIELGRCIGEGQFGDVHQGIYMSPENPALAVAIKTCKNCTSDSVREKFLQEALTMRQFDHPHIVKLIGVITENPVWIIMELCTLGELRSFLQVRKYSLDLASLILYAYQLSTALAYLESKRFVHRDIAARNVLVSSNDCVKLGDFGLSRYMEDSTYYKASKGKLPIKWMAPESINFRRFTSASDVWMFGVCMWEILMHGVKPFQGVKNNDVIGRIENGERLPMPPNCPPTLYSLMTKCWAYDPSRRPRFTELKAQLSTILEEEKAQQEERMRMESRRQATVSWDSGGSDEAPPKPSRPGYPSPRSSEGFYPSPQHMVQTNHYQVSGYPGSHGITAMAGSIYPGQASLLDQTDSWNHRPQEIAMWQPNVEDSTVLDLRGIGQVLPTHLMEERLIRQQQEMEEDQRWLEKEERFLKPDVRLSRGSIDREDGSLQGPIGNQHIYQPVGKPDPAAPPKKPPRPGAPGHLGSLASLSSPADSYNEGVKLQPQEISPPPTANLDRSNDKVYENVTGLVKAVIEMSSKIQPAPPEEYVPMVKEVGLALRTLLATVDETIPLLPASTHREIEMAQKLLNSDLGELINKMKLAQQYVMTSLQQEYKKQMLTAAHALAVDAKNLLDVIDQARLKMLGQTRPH

[23] = target: Mitogen-activated protein kinase 14 (Homo sapiens) (UniProt Q16539); experiment: Inhibition of p38alpha (unknown origin) at <1 uM using MBP as substrate preincubated for 5 mins followed by substrate addition measured after 60 mins in presence of [gamma32P]ATP by scintillation counter method
[24] = target: Ephrin type-A receptor 3 (Homo sapiens) (UniProt P29320); experiment: Binding affinity to partial length wild-type human EPHA3 (D604 to K889 residues) expressed in bacterial expression system assessed as unbound drug level at 300 nM by KINOMEscan assay
CDK8/Cyclin C = CDK8/Cyclin C (Homo sapiens, UniProt P49336); experiment: Inhibition of kinase tracer-236 binding to GST-tagged CDK8/CyclinC (unknown origin) after 60 mins by TR-FRET assay; type: protein-complex assay
[25] = target: Dual specificity tyrosine-phosphorylation-regulated kinase 1A (Homo sapiens) (UniProt Q13627); experiment: Binding affinity to partial length wild-type human DYRK1A (H129 to S509 residues) expressed in mammalian expression system assessed as unbound drug level at 300 nM by KINOMEscan assay
[26] = target: Cyclin-C/Cyclin-dependent kinase 19 (Homo sapiens) (UniProt Q9BWU1+P24863); conditions: 1 uM
Description: Inhibition of kinase tracer-236 binding to GST-tagged CDK19/CyclinC (unknown origin) at 1 uM after 60 mins by TR-FRET assay relative to control

[27] = target: T1, Homeodomain-interacting protein kinase 1; conditions: 300 nM

Structure (SMILES): COCCNC(=O)c1ccc(Oc2sc(C(N)=O)c3c2-c2sncc2CC3)cn1
- T/C (RPMI-8226): 27%
- microsomal CLint at 1 µM [1]: 21 µL/min/mg
- Kd [2]: 46 nM
- Kd [3]: 97 nM
- Kd [4]: 160 nM
- Kd (Ephrin type-A receptor 3): > 3000 nM
- Vd [5]: 2.14 L/kg
- MRT [6]: 1.93 h
- AUC (Mus musculus [7]): 90.4 ng·h/mL
- AUC(0-t) at 24 h [8]: 891 ng·h/mL
- Cmax [9]: 362 ng/mL
- bioavailability [10]: 98.5%
- half-life [11]: 2.1 h
- Activity (Mus musculus [12]): 0.9%
- inhibition (Mus musculus [13]): Active
- inhibition [14]: 7%
- inhibition [15]: 2%
- inhibition [16]: 33%
- inhibition [17]: inactive
- inhibition [18]: inactive
- inhibition [19]: inactive
- inhibition [20]: inactive
- inhibition [21]: inactive
- inhibition [22]: inactive
- inhibition [23]: inactive
- Fu [24]: 0.43%
- IC50 (CDK8/Cyclin C): 0.46 nM
- Fu [25]: 0.47%
- inhibition [26]: 100%
- Fu [27]: 0.32%
